Assay results from the CheMixHub ionic liquid set.

Experiment: xn = mol fraction of the nth substance listed
Details: 100 kPa

CCC(=O)[O-].CCOCCn1cc[n+](C)c1 + O
Details | electrical conductivity [S/m] | viscosity [mPa·s]
288.15 K, x1 = 0.8211 | 0.244 | 56.95
288.15 K, x1 = 0.85 | 0.209 | 62.86
288.15 K, x1 = 0.8812 | 0.178 | 69.98
288.15 K, x1 = 0.9123 | 0.148 | 77.3
288.15 K, x1 = 0.9441 | 0.118 | 85.4
288.15 K, x1 = 1 | 0.067 | 96.2
293.15 K, x1 = 0.8211 | 0.285 | 43.77
293.15 K, x1 = 0.85 | 0.255 | 48.37
293.15 K, x1 = 0.8812 | 0.228 | 53.31
293.15 K, x1 = 0.9123 | 0.202 | 58.97
293.15 K, x1 = 0.9441 | 0.177 | 64.74
293.15 K, x1 = 1 | 0.132 | 72.77
298.15 K, x1 = 0.8211 | 0.332 | 34.4
298.15 K, x1 = 0.85 | 0.305 | 37.68
298.15 K, x1 = 0.8812 | 0.28 | 41.51
298.15 K, x1 = 0.9123 | 0.258 | 45.4
298.15 K, x1 = 0.9441 | 0.236 | 49.8
298.15 K, x1 = 1 | 0.196 | 55.65
303.15 K, x1 = 0.8211 | 0.425 | 27.21
303.15 K, x1 = 0.85 | 0.399 | 29.76
303.15 K, x1 = 0.8812 | 0.371 | 32.63
303.15 K, x1 = 0.9123 | 0.349 | 35.7
303.15 K, x1 = 0.9441 | 0.326 | 39.01
303.15 K, x1 = 1 | 0.285 | 43.51
308.15 K, x1 = 0.8211 | 0.539 | 22.04
308.15 K, x1 = 0.85 | 0.507 | 23.97
308.15 K, x1 = 0.8812 | 0.478 | 26.44
308.15 K, x1 = 0.9123 | 0.451 | 28.78
308.15 K, x1 = 0.9441 | 0.425 | 30.96
308.15 K, x1 = 1 | 0.378 | 34.6
313.15 K, x1 = 0.8211 | 0.647 | 17.65
313.15 K, x1 = 0.85 | 0.617 | 19.48
313.15 K, x1 = 0.8812 | 0.588 | 21.34
313.15 K, x1 = 0.9123 | 0.561 | 22.96
313.15 K, x1 = 0.9441 | 0.534 | 24.58
313.15 K, x1 = 1 | 0.488 | 27.45
318.15 K, x1 = 0.8211 | 0.775 | 14.34
318.15 K, x1 = 0.85 | 0.747 | 15.58
318.15 K, x1 = 0.8812 | 0.718 | 17.15
318.15 K, x1 = 0.9123 | 0.691 | 18.49
318.15 K, x1 = 0.9441 | 0.664 | 19.86
318.15 K, x1 = 1 | 0.619 | 22.11
